# How the values were obtained:
# Experiment in all cases: Kinase profiling screen (radioactive filter-binding assay)
# Type in all cases: biochemical
# MLK3 = MLK3 (Homo sapiens, UniProt Q16584); settings: 100 μM compound, 20 μM ATP; read-out: Kinase activity, % of activity in the absence of inhibitor
# How it was run: (§1)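 Single-point in vitro screen: 100 μM final of CoA, dpCoA and ADP, run in duplicate against recombinant kinase with a model substrate and optimal ATP.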
# ERK8 = biological target: T1, ERK8 (Homo sapiens, UniProt Q8TD08); settings: 100 μM compound, 5 μM ATP; read-out: Kinase activity, % of activity in the absence of inhibitor
# T1 sequence (Q8TD08 1-544): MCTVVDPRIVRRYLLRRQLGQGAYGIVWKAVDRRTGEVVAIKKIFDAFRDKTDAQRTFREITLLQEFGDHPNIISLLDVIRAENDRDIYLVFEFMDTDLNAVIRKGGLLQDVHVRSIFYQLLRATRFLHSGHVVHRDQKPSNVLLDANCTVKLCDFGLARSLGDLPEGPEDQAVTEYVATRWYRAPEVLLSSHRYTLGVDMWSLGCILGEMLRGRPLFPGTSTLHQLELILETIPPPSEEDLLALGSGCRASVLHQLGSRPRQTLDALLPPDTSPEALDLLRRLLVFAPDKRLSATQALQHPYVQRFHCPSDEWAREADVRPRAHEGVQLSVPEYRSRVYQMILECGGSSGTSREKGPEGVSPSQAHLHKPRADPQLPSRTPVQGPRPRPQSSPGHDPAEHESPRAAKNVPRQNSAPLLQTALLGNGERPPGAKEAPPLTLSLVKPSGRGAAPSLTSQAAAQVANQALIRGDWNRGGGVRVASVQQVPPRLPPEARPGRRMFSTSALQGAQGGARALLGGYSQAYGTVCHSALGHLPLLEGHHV
# How it was run: as §1
# MST2 = biological target: T2, MST2 (Homo sapiens, UniProt Q13188); settings: 100 μM compound, 20 μM ATP; read-out: Kinase activity, % of activity in the absence of inhibitor
# T2 sequence (Q13188 1-491): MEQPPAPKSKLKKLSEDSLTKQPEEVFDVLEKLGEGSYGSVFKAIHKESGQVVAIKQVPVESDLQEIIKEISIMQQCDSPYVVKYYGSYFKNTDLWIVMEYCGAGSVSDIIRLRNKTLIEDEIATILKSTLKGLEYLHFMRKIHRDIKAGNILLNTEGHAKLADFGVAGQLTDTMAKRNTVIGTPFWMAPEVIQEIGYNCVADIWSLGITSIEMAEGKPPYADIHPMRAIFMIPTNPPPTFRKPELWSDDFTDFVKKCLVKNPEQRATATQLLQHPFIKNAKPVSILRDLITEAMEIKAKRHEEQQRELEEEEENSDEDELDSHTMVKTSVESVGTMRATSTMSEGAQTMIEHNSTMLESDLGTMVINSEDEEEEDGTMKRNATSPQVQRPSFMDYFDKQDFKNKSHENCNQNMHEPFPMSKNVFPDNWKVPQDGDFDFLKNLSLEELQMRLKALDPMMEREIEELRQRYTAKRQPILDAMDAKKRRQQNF
# How it was run: as §1
# MEKK1 = MEKK1 (Homo sapiens, UniProt Q13233); settings: 100 μM compound, 20 μM ATP; read-out: Kinase activity, % of activity in the absence of inhibitor
# How it was run: as §1
# SmMLCK = SmMLCK (Homo sapiens, UniProt Q15746); settings: 100 μM compound, 20 μM ATP; read-out: Kinase activity, % of activity in the absence of inhibitor
# How it was run: as §1
# PIM3 = PIM3 (Homo sapiens, UniProt Q86V86); settings: 100 μM compound, 20 μM ATP; read-out: Kinase activity, % of activity in the absence of inhibitor
# How it was run: as §1
# IRAK4 = biological target: T3, IRAK4 (Homo sapiens, UniProt Q9NWZ3); settings: 100 μM compound, 20 μM ATP; read-out: Kinase activity, % of activity in the absence of inhibitor
# T3 sequence (Q9NWZ3 1-460): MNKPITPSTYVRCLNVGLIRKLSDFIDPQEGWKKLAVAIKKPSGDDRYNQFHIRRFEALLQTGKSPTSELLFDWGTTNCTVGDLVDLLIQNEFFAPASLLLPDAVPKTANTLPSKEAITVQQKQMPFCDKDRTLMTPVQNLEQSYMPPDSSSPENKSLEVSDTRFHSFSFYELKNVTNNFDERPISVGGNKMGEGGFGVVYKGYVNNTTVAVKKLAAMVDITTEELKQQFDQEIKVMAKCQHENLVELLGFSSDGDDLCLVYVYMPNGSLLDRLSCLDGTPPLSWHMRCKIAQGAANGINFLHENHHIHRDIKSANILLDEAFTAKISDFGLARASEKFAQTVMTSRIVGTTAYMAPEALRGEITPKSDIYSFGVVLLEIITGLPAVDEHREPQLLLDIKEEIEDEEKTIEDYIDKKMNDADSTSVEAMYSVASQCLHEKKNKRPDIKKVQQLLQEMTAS
# How it was run: as §1
# TIE2 = TIE2 (Homo sapiens, UniProt Q02763); settings: 100 μM compound, 20 μM ATP; read-out: Kinase activity, % of activity in the absence of inhibitor
# TIE2, sequence (Q02763 23-1124): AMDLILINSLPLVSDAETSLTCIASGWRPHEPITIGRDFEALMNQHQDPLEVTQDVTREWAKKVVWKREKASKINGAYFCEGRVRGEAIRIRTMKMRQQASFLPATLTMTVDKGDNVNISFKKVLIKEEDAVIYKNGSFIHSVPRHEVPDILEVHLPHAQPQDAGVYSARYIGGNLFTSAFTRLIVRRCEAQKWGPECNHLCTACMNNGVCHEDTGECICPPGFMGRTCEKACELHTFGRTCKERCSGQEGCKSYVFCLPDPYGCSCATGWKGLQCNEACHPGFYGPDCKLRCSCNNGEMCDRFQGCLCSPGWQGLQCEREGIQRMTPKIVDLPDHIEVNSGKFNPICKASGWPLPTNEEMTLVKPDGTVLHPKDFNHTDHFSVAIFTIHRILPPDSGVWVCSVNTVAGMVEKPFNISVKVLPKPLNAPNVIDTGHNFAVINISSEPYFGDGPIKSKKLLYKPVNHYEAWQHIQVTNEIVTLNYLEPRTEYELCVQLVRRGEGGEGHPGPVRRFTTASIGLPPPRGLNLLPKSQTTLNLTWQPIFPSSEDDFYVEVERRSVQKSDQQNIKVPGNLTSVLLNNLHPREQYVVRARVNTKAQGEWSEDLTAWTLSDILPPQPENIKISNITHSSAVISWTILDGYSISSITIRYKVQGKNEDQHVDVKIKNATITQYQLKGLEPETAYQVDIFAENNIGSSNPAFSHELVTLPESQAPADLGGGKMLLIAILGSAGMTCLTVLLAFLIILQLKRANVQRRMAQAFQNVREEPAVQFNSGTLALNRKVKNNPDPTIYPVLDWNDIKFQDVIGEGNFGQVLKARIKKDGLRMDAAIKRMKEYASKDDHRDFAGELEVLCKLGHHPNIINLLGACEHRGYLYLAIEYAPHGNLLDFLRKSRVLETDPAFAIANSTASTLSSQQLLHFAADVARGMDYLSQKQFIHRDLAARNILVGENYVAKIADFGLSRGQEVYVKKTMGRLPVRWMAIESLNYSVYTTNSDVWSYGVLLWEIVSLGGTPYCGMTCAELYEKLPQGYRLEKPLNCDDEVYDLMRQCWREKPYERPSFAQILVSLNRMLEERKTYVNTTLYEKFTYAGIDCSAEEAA
# How it was run: as §1
# JNK2 = JNK2 (Homo sapiens, UniProt P45984); settings: 100 μM compound, 20 μM ATP; read-out: Kinase activity, % of activity in the absence of inhibitor
# JNK2, sequence (P45984 whole entry): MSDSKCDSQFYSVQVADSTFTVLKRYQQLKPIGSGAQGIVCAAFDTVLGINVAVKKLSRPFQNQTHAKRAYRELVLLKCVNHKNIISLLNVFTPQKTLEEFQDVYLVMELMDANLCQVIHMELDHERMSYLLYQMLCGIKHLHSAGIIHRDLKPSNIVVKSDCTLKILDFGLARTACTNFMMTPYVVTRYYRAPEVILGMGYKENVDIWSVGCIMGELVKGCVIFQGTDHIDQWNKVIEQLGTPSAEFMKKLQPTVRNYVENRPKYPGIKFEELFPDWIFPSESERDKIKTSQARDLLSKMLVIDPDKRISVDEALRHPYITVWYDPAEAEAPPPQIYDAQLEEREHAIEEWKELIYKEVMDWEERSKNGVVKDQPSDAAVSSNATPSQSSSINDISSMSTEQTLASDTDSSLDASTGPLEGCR
# How it was run: as §1
# JAK2 = JAK2 (Homo sapiens, UniProt O60674); settings: 100 μM compound, 5 μM ATP; read-out: Kinase activity, % of activity in the absence of inhibitor
# How it was run: as §1
# HER4 = HER4 (Homo sapiens, UniProt Q15303); settings: 100 μM compound, 5 μM ATP; read-out: Kinase activity, % of activity in the absence of inhibitor
# HER4, sequence (Q15303 26-1308): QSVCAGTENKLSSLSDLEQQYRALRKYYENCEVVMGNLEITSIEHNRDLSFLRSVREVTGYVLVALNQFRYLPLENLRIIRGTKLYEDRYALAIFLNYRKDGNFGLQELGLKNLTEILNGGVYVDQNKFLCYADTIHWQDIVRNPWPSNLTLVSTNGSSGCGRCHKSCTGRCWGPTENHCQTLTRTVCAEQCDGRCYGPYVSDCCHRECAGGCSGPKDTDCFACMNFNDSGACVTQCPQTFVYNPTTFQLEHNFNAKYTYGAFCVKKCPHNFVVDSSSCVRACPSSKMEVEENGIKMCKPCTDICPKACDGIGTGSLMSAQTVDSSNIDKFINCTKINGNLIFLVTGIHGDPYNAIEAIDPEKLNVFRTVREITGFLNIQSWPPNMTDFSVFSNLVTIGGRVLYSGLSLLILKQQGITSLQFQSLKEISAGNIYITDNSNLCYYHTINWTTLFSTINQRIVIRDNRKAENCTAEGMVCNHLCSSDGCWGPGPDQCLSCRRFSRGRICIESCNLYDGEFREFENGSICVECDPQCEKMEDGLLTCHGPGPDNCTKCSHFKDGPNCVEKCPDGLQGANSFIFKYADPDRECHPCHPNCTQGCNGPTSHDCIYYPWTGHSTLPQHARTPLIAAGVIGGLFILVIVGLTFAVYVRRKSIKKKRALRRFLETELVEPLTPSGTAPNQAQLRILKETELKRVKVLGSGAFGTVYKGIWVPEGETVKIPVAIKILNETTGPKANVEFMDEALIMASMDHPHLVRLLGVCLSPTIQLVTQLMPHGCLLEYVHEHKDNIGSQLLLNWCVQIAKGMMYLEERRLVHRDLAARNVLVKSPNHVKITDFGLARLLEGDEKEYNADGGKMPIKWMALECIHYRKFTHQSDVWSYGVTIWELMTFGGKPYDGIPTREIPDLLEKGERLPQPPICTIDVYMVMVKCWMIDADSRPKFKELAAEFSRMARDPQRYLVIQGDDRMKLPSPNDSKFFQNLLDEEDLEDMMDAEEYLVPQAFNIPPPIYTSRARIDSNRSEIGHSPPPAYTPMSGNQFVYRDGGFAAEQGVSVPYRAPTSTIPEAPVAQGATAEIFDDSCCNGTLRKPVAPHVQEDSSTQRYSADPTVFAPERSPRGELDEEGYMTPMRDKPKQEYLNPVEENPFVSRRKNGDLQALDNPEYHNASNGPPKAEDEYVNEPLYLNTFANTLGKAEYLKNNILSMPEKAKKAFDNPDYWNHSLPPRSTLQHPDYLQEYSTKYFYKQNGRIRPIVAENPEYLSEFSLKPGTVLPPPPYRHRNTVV
# How it was run: as §1
# p38β MAPK = p38β MAPK (Homo sapiens, UniProt Q15759); settings: 100 μM compound, 20 μM ATP; read-out: Kinase activity, % of activity in the absence of inhibitor
# p38β MAPK, sequence (Q15759 whole entry): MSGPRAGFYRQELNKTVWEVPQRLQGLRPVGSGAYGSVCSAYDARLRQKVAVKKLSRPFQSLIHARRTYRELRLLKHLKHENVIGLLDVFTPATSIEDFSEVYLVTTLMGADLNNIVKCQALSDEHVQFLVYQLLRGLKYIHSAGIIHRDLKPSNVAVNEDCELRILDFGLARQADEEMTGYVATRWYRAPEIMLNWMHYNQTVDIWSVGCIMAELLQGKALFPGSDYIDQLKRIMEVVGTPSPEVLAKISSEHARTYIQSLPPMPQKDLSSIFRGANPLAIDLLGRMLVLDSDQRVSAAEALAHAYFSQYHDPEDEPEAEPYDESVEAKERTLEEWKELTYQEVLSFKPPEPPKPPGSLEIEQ
# How it was run: as §1
# PAK4 = PAK4 (Homo sapiens, UniProt O96013); settings: 100 μM compound, 5 μM ATP; read-out: Kinase activity, % of activity in the absence of inhibitor
# PAK4, sequence (O96013 whole entry): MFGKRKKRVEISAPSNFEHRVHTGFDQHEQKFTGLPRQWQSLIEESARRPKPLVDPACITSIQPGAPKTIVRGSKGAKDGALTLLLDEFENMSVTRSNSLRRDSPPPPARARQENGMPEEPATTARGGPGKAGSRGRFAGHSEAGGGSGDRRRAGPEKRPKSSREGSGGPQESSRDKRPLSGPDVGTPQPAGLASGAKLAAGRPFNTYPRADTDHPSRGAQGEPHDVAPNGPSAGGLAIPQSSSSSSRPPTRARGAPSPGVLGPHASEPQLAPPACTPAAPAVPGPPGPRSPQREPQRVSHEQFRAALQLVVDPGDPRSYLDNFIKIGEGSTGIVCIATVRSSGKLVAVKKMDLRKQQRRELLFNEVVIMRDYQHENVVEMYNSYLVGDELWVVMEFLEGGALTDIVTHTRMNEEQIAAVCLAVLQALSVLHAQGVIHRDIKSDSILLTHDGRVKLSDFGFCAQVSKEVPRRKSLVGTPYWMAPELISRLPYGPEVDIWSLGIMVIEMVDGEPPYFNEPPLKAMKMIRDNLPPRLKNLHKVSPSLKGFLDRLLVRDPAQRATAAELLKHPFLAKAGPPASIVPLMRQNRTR
# How it was run: as §1
# MLK3, sequence (Q16584 whole entry): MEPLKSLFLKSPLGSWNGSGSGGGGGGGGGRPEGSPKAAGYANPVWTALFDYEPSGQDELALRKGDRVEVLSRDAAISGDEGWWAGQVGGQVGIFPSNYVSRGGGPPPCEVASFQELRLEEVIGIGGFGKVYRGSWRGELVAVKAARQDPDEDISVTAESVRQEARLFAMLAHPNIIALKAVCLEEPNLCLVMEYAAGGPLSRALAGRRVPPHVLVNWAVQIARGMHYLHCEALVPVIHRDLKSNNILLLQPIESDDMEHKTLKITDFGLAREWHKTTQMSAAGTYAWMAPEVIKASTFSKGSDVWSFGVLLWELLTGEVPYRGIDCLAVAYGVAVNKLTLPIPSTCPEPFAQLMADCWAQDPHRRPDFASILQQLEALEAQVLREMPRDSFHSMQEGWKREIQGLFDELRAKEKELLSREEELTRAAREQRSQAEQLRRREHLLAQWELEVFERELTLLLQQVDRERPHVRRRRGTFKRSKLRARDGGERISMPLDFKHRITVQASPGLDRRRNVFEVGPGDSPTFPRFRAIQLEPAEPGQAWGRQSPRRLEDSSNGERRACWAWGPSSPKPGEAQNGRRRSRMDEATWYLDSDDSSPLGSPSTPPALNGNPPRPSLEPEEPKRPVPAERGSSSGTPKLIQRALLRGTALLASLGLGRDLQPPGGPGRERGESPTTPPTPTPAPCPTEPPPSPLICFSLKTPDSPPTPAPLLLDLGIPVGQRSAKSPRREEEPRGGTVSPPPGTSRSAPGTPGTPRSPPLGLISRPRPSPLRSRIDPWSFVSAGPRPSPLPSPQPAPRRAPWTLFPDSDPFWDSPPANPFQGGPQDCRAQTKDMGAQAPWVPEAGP
SMILES,activity at 100 µM (MLK3),activity at 100 µM (ERK8),activity at 100 µM (MST2),activity at 100 µM (MEKK1),activity at 100 µM (SmMLCK),activity at 100 µM (PIM3),activity at 100 µM (IRAK4),activity at 100 µM (TIE2),activity at 100 µM (JNK2),activity at 100 µM (JAK2),activity at 100 µM (HER4),activity at 100 µM (p38β MAPK),activity at 100 µM (PAK4)
"CC(C)(COP(=O)(O)OP(=O)(O)OC[C@H]1O[C@@H](n2cnc3c(N)ncnc32)[C@H](O)[C@@H]1OP(=O)(O)O)[C@@H](O)C(=O)NCCC(=O)NCCS [CoA, Coenzyme A]",70.2%,101%,119%,96.3%,92.1%,122%,89.1%,93%,93.9%,106%,100%,160%,69.9%
"CC(C)(COP(=O)(O)OP(=O)(O)OCC1OC(n2cnc3c(N)ncnc32)C(O)C1O)C(O)C(=O)NCCC(=O)NCCS (stereo not drawn) [dpCoA, dephospho-CoA]",61.9%,38.5%,72.5%,106%,91.3%,96.7%,74.8%,83.4%,76.1%,62.5%,75.7%,94.5%,75.9%
Nc1ncnc2c1ncn2C1OC(COP(=O)(O)OP(=O)(O)O)C(O)C1O (stereo not drawn) [ADP],46.8%,16.6%,40.5%,68.1%,73%,36.1%,82.1%,33.1%,57.3%,7.1%,29.1%,51.1%,73.8%

# Source: PMC6812009, “Covalent Aurora A regulation by the metabolic integrator coenzyme A” (Redox Biology, 2019)
